For 13 molecules, IC50 results are on record in patent publication US20250179103A1, “6-OXODECAHYDROPYRROLO[1,2-A][1,5]DIAZOCINE AND 6-OXODECAHYDRO-4H-PYRROLO[2,1-D][1,5]THIAZOCINE DERIVATIVES AS STAT3 AND STAT6 MODULATORS FOR THE TREATMENT OF CANCER AND INFLAMMATORY CONDITIONS” (Recludix Pharma, Inc., priority 2022, published 2025).

Assay [1] has as its target T1, Recombinant STAT3 protein (STAT3(G127-I722)) (Homo sapiens, UniProt P40763).
T1 construct: Recombinant STAT3 protein (STAT3(G127-I722))
The assay is described as follows: STAT3 Fluorescence Polarization (FP) Assay. Type of assay: binding. To be noted: STAT3(G127-I722) 25 nM, probe 5-FAM-GpYLPQTV-NH2 2 nM, 45-minute incubation. In outline:
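STAT3(G127-I722), 25 nM, was mixed with 2 nM 5-FAM-GpYLPQTV-NH2 probe in HEPES pH 7.4 buffer with 1% DMSO and serially diluted compound. FP (mP) was read after 45 min at room temperature. IC50 came from nonlinear regression.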
In general terms: Fluorescence polarisation rises when a labelled molecule tumbles more slowly, as on binding a larger partner.

Assay [2] concerns the target T2, Recombinant STAT6 protein (STAT6(W123-T658)) (Homo sapiens, UniProt P42226).
T2 construct: Recombinant STAT6 protein (STAT6(W123-T658))
T2 sequence (P42226 123-658): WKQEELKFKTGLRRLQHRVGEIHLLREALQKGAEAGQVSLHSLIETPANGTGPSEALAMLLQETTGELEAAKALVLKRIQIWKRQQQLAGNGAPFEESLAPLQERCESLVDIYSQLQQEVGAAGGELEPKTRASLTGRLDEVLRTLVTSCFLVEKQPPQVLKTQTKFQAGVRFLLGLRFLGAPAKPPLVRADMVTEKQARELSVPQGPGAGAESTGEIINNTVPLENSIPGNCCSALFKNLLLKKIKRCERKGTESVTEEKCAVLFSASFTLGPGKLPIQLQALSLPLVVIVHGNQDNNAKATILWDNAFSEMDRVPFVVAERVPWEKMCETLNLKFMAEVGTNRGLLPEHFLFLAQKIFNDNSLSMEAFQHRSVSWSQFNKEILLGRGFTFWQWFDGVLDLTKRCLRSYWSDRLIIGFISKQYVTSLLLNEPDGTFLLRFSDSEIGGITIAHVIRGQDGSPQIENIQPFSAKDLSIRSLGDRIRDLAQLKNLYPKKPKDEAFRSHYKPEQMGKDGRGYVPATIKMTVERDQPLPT
The assay is described as follows: STAT6 Fluorescence Polarization (FP) Assay. Type of assay: binding. The conditions noted are these: STAT6(W123-T658) 250 nM, probe 5-FAM-ApYKPFQDLI-NH2 2 nM, 45-minute incubation. In outline: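 Displacement of a fluorescent phosphotyrosine peptide (5-FAM-ApYKPFQDLI-NH2, 2 nM) from STAT6(W123-T658) (250 nM), 1% DMSO, pH 7.4 HEPES buffer. After 45 min at room temperature, polarization (mP) was plotted versus log compound concentration and fitted by nonlinear regression to give IC50.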

pIC50: −log10 of the molar value.

T1 sequence (P40763 127-722): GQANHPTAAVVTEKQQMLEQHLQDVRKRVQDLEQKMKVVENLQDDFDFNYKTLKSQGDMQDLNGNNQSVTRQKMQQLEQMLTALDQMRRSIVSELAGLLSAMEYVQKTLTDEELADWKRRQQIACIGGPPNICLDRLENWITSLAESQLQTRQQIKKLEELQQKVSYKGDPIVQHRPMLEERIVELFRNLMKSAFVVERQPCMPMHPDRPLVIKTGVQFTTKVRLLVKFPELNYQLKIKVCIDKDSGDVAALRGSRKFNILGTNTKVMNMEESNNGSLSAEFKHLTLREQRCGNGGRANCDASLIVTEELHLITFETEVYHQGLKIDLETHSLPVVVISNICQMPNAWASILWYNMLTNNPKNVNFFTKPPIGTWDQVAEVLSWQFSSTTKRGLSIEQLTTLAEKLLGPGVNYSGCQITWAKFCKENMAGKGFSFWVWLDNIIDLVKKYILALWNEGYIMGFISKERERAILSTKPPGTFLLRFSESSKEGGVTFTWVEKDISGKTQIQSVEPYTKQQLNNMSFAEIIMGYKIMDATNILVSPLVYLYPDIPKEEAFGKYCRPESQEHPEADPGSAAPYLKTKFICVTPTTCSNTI

On to `CC(=O)N1CC[C@H]2CC[C@@H](C(=O)N3C[C@H](C#N)[C@@]4(C3)C(=O)Nc3ccccc34)N2C(=O)[C@@H](NC(=O)c2cc3cc(C(F)(F)P(=O)(O)O)ccc3s2)C1` (single isomer, unassigned) [Compound 13, ((2-(((5S,8S,10aR)-3-acetyl-8-((3R,4′R or 3S,4′S)-4′-cyano-2-oxospiro[indoline-3,3′-pyrrolidine]-1′-carbonyl)-6-oxodecahydropyrrolo[1,2-a][1,5]diazocin-5-yl)carbamoyl)benzo[b]thiophen-5-yl)difluoromethyl)phosphonic acid], for which the negative logarithm of the IC50 (pIC50) – broadly, the IC50 on a negative log10 scale, so that one unit is a factor of ten – in assay [1] is 5.00 to 6.00; in assay [2], 5.52 to 6.52.
For `CC(=O)N1CC[C@H]2CC[C@@H](C(=O)N3C[C@H](c4cc[nH]c(=O)c4)[C@@H](C#N)C3)N2C(=O)[C@@H](NC(=O)c2ccc3ccc(C(F)(F)P(=O)(O)O)cc3c2)C1` (single isomer, unassigned) [Compound 38, ((7-(((5S,8S,10aR)-3-acetyl-8-((3R,4S or 3S,4R)-3-cyano-4-(2-oxo-1,2-dihydropyridin-4-yl)pyrrolidine-1-carbonyl)-6-oxodecahydropyrrolo[1,2-a][1,5]diazocin-5-yl)carbamoyl)naphthalen-2-yl)difluoromethyl)phosphonic acid], in that order: 5.00 to 6.00 and at least 6.52.
For `CC(=O)N1CC[C@H]2CC[C@@H](C(=O)N3C[C@@H](C#N)[C@H](c4cc[nH]c(=O)c4)C3)N2C(=O)[C@@H](NC(=O)c2ccc3ccc(C(F)(F)P(=O)(O)O)cc3c2)C1` (single isomer, unassigned) [Compound 39, ((7-(((5S,8S,10aR)-3-acetyl-8-((3S,4R or 3R,4S)-3-cyano-4-(2-oxo-1,2-dihydropyridin-4-yl)pyrrolidine-1-carbonyl)-6-oxodecahydropyrrolo[1,2-a][1,5]diazocin-5-yl)carbamoyl)naphthalen-2-yl)difluoromethyl)phosphonic acid], in that order: 5.00 to 6.00 and at least 6.52.
With `CC(=O)N1CC[C@H]2CC[C@@H](C(=O)N3C[C@@H](C#N)[C@H](c4ccccc4)C3)N2C(=O)[C@@H](NC(=O)c2cc3cc(C(F)(F)P(=O)(O)O)ccc3s2)C1` (single isomer, unassigned) [Compound 52, ((2-(((5S,8S,10aR)-3-acetyl-8-((3S,4R or 3R,4S)-3-cyano-4-phenylpyrrolidine-1-carbonyl)-6-oxodecahydropyrrolo[1,2-a][1,5]diazocin-5-yl)carbamoyl)benzo[b]thiophen-5-yl)difluoromethyl)phosphonic acid], the pIC50 in assay [1] is 5.00 to 6.00; in assay [2] it was at least 6.52.
For `CC(=O)N1CC[C@H]2CC[C@@H](C(=O)N3C[C@H](C(N)=O)[C@@H](c4ccccc4)C3)N2C(=O)[C@@H](NC(=O)c2cc3cc(C(F)(F)P(=O)(O)O)ccc3s2)C1` (single isomer, unassigned) [Compound 59, ((2-(((5S,8S,10aR)-3-acetyl-8-((3R,4S or 3S,4R)-3-carbamoyl-4-phenylpyrrolidine-1-carbonyl)-6-oxodecahydropyrrolo[1,2-a][1,5]diazocin-5-yl)carbamoyl)benzo[b]thiophen-5-yl)difluoromethyl)phosphonic acid], in that order: 5.00 to 6.00 and at least 6.52.
Regarding `CC(=O)N1CC[C@H]2CC[C@@H](C(=O)N3CC[C@H](Cc4cccnc4)C3)N2C(=O)[C@@H](NC(=O)c2cc3cc(C(F)(F)P(=O)(O)O)ccc3s2)C1` (single isomer, unassigned) [Compound 65, ((2-(((5S,8S,10aR)-3-acetyl-6-oxo-8-((S)-3-(pyridin-3-ylmethyl)pyrrolidine-1-carbonyl)decahydropyrrolo[1,2-a][1,5]diazocin-5-yl)carbamoyl)benzo[b]thiophen-5-yl)difluoromethyl)phosphonic acid or ((2-(((5S,8S,10aR)-3-acetyl-6-oxo-8-((R)-3-(pyridin-3-ylmethyl)pyrrolidine-1-carbonyl)decahydropyrrolo[1,2-a][1,5]diazocin-5-yl)carbamoyl)benzo[b]thiophen-5-yl)difluoromethyl)phosphonic acid], the pIC50 in assay [1] is 5.00 to 6.00; in assay [2], 5.52 to 6.52.
For `CC(=O)N1CC[C@H]2CC[C@@H](C(=O)N3C[C@H](c4ccccc4)[C@@H](C#N)C3)N2C(=O)[C@@H](NC(=O)c2cc3cc(C(F)(F)P(=O)(O)O)ccc3[nH]2)C1` (single isomer, unassigned) [Compound 138, ((2-(((5S,8S,10aR)-3-acetyl-8-((3R,4S or 3S,4R)-3-cyano-4-phenylpyrrolidine-1-carbonyl)-6-oxodecahydropyrrolo[1,2-a][1,5]diazocin-5-yl)carbamoyl)-1H-indol-5-yl)difluoromethyl)phosphonic acid], in that order: 5.00 to 6.00 and at least 6.52.
For `CC(=O)N1CC[C@H]2CC[C@@H](C(=O)N3C[C@@H](C#N)[C@H](c4ccccc4)C3)N2C(=O)[C@@H](NC(=O)c2cc3cc(C(F)(F)P(=O)(O)O)ccc3[nH]2)C1` (single isomer, unassigned) [Compound 139, ((2-(((5S,8S,10aR)-3-acetyl-8-((3S,4R or 3R,4S)-3-cyano-4-phenylpyrrolidine-1-carbonyl)-6-oxodecahydropyrrolo[1,2-a][1,5]diazocin-5-yl)carbamoyl)-1H-indol-5-yl)difluoromethyl)phosphonic acid], in that order: 5.00 to 6.00 and at least 6.52.
For `CCN1CC[C@H]2CC[C@@H](C(=O)N3C[C@@H](C#N)[C@H](c4ccccc4)C3)N2C(=O)[C@@H](NC(=O)c2cc3cc(C(F)(F)P(=O)(O)O)ccc3s2)C1` (single isomer, unassigned) [Compound 222, ((2-(((5S,8S,10aR)-8-((3S,4R or 3R,4S)-3-cyano-4-phenylpyrrolidine-1-carbonyl)-3-ethyl-6-oxodecahydropyrrolo[1,2-a][1,5]diazocin-5-yl)carbamoyl)benzo[b]thiophen-5-yl)difluoromethyl)phosphonic acid], in that order: 5.00 to 6.00 and 5.52 to 6.52.
Take `CCN1CC[C@H]2CC[C@@H](C(=O)N3C[C@@H](C#N)[C@H](c4ccccc4)C3)N2C(=O)[C@@H](NC(=O)c2cc3cc([C@H](F)P(=O)(O)O)ccc3s2)C1` (single isomer, unassigned) [Compound 232, ((R or S)-(2-(((5S,8S,10aR)-8-((3S,4R or 3R,4R)-3-cyano-4-phenylpyrrolidine-1-carbonyl)-3-ethyl-6-oxodecahydropyrrolo[1,2-a][1,5]diazocin-5-yl)carbamoyl)benzo[b]thiophen-5-yl)fluoromethyl)phosphonic acid]: the figures for the negative-log IC50 (pIC50) in assay [1] and in assay [2] were 6.00 to 7.00 and at least 6.52, respectively.
For the molecule `CCN1CC[C@H]2CC[C@@H](C(=O)N3C[C@@H](C#N)[C@H](c4cc[nH]c(=O)c4)C3)N2C(=O)[C@@H](NC(=O)c2ccc3ccc(C(F)(F)P(=O)(O)O)cc3c2)C1` (single isomer, unassigned) [Compound 238, ((7-(((5S,8S,10aR)-8-((3R,4S or 3S,4R)-3-cyano-4-(2-oxo-1,2-dihydropyridin-4-yl)pyrrolidine-1-carbonyl)-3-ethyl-6-oxodecahydropyrrolo[1,2-a][1,5]diazocin-5-yl)carbamoyl)naphthalen-2-yl)difluoromethyl)phosphonic acid], the values for the negative logarithm of the IC50 (pIC50) in assay [1] and in assay [2] were 5.00 to 6.00 and 5.52 to 6.52, respectively.
For `CCN1CC[C@H]2CC[C@@H](C(=O)N3C[C@@H](C#N)[C@H](c4ccccc4)C3)N2C(=O)[C@@H](NC(=O)c2ccc3ccc(C(F)(F)P(=O)(O)O)cc3c2)C1` (single isomer, unassigned) [Compound 243, ((7-(((5S,8S,10aR)-8-((3S,4R or 3R,4S)-3-cyano-4-phenylpyrrolidine-1-carbonyl)-3-ethyl-6-oxodecahydropyrrolo[1,2-a][1,5]diazocin-5-yl)carbamoyl)naphthalen-2-yl)difluoromethyl)phosphonic acid], in that order: 5.00 to 6.00 and 5.52 to 6.52.
For `NC(=O)[C@@H]1CN(C(=O)[C@@H]2CC[C@@H]3CCN(CC(F)F)C[C@H](NC(=O)c4cc5cc(C(F)(F)P(=O)(O)O)ccc5s4)C(=O)N32)C[C@H]1c1ccccc1` (single isomer, unassigned) [Compound 245, ((2-(((5S,8S,10aR)-8-((3S,4R or 3R,4S)-3-carbamoyl-4-phenylpyrrolidine-1-carbonyl)-3-(2,2-difluoroethyl)-6-oxodecahydropyrrolo[1,2-a][1,5]diazocin-5-yl)carbamoyl)benzo[b]thiophen-5-yl)difluoromethyl)phosphonic acid], in that order: 6.00 to 7.00 and 5.52 to 6.52.
